This note sets out measurements from ChEMBL document CHEMBL3745627, “A Methylene Group on C-2 of 24,24-Difluoro-19-nor-1α,25-dihydroxyvitamin D3 Markedly Increases Bone Calcium Mobilization in Vivo” (J Med Chem, 2015).

What is called Ki is the dissociation constant of the complex between target and ligand, obtained from inhibition or displacement.

Test [1] deals with Rattus norvegicus. Briefly: Induction of bone mobilization activity in weaning Sprague-Dawley rat assessed as increase in serum calcium level at 260 pmol, ip for 4 consecutive dose at an interval of 24 hrs measured 24 hrs after last dose (reference value: 4.4 to 4.5 mg/dl). The format is functional.
Test [2] has as its system Rattus norvegicus. Description: Induction of intestinal calcium transport in weaning Sprague-Dawley rat assessed as ratio of calcium level in serosal to mucosal at 260 pmol, ip for 4 consecutive dose at an interval of 24 hrs measured 24 hrs after last dose (reference value: 3.7 to 4.8). Type of test: functional.
Test [3] deals with Rattus norvegicus. Description: Induction of intestinal calcium transport in weaning Sprague-Dawley rat assessed as ratio of calcium level in serosal to mucosal at 32 pmol, ip for 4 consecutive dose at an interval of 24 hrs measured 24 hrs after last dose (reference value: 3.7 to 4.8). Type of test: functional.
Another test addresses T1, Vitamin D3 receptor (Rattus norvegicus, UniProt P13053).
T1 sequence (P13053 whole entry): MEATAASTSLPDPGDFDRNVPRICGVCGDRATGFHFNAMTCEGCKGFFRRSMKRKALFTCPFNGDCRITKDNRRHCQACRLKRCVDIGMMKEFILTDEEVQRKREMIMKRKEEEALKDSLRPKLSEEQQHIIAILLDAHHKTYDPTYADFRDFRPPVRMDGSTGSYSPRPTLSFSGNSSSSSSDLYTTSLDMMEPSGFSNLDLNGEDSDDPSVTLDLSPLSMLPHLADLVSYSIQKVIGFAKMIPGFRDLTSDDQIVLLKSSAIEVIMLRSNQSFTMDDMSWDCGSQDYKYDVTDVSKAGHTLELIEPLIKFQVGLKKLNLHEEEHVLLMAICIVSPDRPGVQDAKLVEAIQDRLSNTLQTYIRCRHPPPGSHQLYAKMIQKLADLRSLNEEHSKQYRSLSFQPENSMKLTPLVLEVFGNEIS
Description: Displacement of [3H]1alpha,25-(OH)2D3 from full-length recombinant rat VDR by scintillation counter.

Test [4] concerns HL-60. Briefly: Induction of human HL60 cell differentiation assessed as differentiation from promyelocytes to monocytes by NBT assay. Type of test: functional. To be noted: read-out: ED50 (the source's name).
Test [5] has as its system Rattus norvegicus. Description: Induction of bone mobilization activity in weaning Sprague-Dawley rat assessed as increase in serum calcium level at 32 pmol, ip for 4 consecutive dose at an interval of 24 hrs measured 24 hrs after last dose (reference value: 4.4 to 4.5 mg/dl). Type of test: functional.
In test [6] the target is T2, Vitamin D3 receptor (Rattus norvegicus) (UniProt P13053).
T2 sequence (whole entry): T1 sequence (P13053 whole entry)
Description: Transactivation of VDR in rat osteosarcoma cells assessed as 24-hydroxylase transcriptional activity by luciferase reporter gene assay. Type of test: cell-based. For orientation: A reporter such as luciferase makes a cellular process visible.

The test system of test [7] is Rattus norvegicus. Briefly: Induction of bone mobilization activity in weaning Sprague-Dawley rat assessed as increase in serum calcium level at 780 pmol, ip for 4 consecutive dose at an interval of 24 hrs measured 24 hrs after last dose (reference value: 4.4 to 4.5 mg/dl). Type of test: functional.
The test system of test [8] is Rattus norvegicus. Briefly: Induction of intestinal calcium transport in weaning Sprague-Dawley rat assessed as ratio of calcium level in serosal to mucosal at 780 pmol, ip for 4 consecutive dose at an interval of 24 hrs measured 24 hrs after last dose (reference value: 3.7 to 4.8). The format is functional.
Test [9] relates to HL-60. Description: Potency index, ratio ED50 of 1alpha,25-(OH)2D3 to ED50 of compound for induction of human HL60 cell differentiation. The format is functional.
In test [10] the test system is Rattus norvegicus. Description: Induction of intestinal calcium transport in weaning Sprague-Dawley rat assessed as ratio of calcium level in serosal to mucosal at 16 pmol, ip for 4 consecutive dose at an interval of 24 hrs measured 24 hrs after last dose (reference value: 3.7 to 4.8). Type of test: functional.
Test [11] has as its system Rattus norvegicus. Description: Induction of bone mobilization activity in weaning Sprague-Dawley rat assessed as increase in serum calcium level at 16 pmol, ip for 4 consecutive dose at an interval of 24 hrs measured 24 hrs after last dose (reference value: 4.4 to 4.5 mg/dl). Type of test: functional.
Test [12] deals with Rattus norvegicus. Description: Induction of bone mobilization activity in weaning Sprague-Dawley rat assessed as increase in serum calcium level at 87 pmol, ip for 4 consecutive dose at an interval of 24 hrs measured 24 hrs after last dose (reference value: 4.4 to 4.5 mg/dl). Type of test: functional.

Regarding `C[C@H](CCC(F)(F)C(C)(C)O)[C@H]1CC[C@H]2/C(=C/C=C3C[C@@H](O)C[C@H](O)C3)CCC[C@]12C`, the Activity with Rattus norvegicus [1] came to 4.9 mg/dL; with Rattus norvegicus [5] it was 4.9 mg/dL; in the test with Rattus norvegicus [7], 5.9 mg/dL. The results for the Ratio in the test with Rattus norvegicus [2], in the test on Rattus norvegicus [3] and in the test with Rattus norvegicus [8] were 6.9, 9.4 and 7.7, respectively. Also, the Ki at Vitamin D3 receptor amounted to 0.02 nM. The EC50 with HL-60 [4] is 0.05 nM. In addition, in [6], the ED50 is 0.04 nM. The “Ratio ED50” value in the test with HL-60 [9] came out at 60.
For the compound `C=C1[C@H](O)CC(=C/C=C2\CCC[C@]3(C)[C@@H]([C@@H](C)CCC(F)(F)C(C)(C)O)CC[C@@H]23)C[C@H]1O`, the Ratio in the test on Rattus norvegicus [10] was 6.6; in the test with Rattus norvegicus [2] it was 12.4; in the test with Rattus norvegicus [8], 8.7. For the same compound, the values for the Activity in the test on Rattus norvegicus [1], with Rattus norvegicus [11] and in the test on Rattus norvegicus [7] were 9.5 mg/dL, 5.8 mg/dL and 9.8 mg/dL, respectively. The Ki on Vitamin D3 receptor came to 0.03 nM. The EC50 with HL-60 [4] was 0.03 nM. The ED50 in test [6] worked out at 0.02 nM. Moreover, the “Ratio ED50” value in the test with HL-60 [9] is 100.
Regarding `C=C1[C@H](O)CC(=C/C=C2\CCC[C@]3(C)[C@@H]([C@H](C)CCC(F)(F)C(C)(C)O)CC[C@@H]23)C[C@H]1O`, the Activity was found to be 9.4 mg/dL with Rattus norvegicus [1], 6 mg/dL with Rattus norvegicus [5] and 11.2 mg/dL in the test on Rattus norvegicus [7]. In addition, the Ratio in the test with Rattus norvegicus [2] was 11.6; in the test with Rattus norvegicus [3], 11.7; with Rattus norvegicus [8], 16.4. Besides, the Ki at Vitamin D3 receptor is 0.04 nM. For the same compound, the EC50 in the test with HL-60 [4] was found to be 0.1 nM. Moreover, the ED50 in test [6] came out at 0.01 nM. For the same compound, in the test on HL-60 [9], the “Ratio ED50” value was 30.
On to `C[C@@H](CCC(F)(F)C(C)(C)O)[C@H]1CC[C@H]2/C(=C/C=C3C[C@@H](O)C[C@H](O)C3)CCC[C@]12C`, for which the Ratio with Rattus norvegicus [10] is recorded as 6.6; in the test with Rattus norvegicus [2], 8.8; in the test on Rattus norvegicus [8], 11.5. Further, the Activity in the test with Rattus norvegicus [1] was 8.5 mg/dL; with Rattus norvegicus [11] it was 5.8 mg/dL; with Rattus norvegicus [7], 9.8 mg/dL. Besides, the inhibition constant (Ki) on Vitamin D3 receptor worked out at 0.03 nM. The EC50 with HL-60 [4] worked out at 0.06 nM. For the same compound, the ED50 in [6] turned out to be 0.04 nM. In addition, the “Ratio ED50” value with HL-60 [9] stood at 50.
Take `C=C1[C@H](O)CC(=C/C=C2\CCC[C@]3(C)[C@@H]([C@H](C)CCCC(C)(C)O)CC[C@@H]23)C[C@H]1O`: on Vitamin D3 receptor, the Ki worked out at 0.03 nM. Also, the EC50 with HL-60 [4] turned out to be 0.02 nM. In addition, the ED50 in [6] came to 0.007 nM. Besides, in the test on HL-60 [9], the “Ratio ED50” value was 150.
For `C=C1/C(=C\C=C2/CCC[C@]3(C)[C@@H]([C@H](C)CCCC(C)(C)O)CC[C@@H]23)C[C@@H](O)C[C@@H]1O` [CALCITRIOL], the Activity stood at 6.6 mg/dL in the test on Rattus norvegicus [12], 5.3 mg/dL in the test on Rattus norvegicus [11] and 7.6 mg/dL in the test on Rattus norvegicus [7].
